Patent US12583854B2, “KRAS G12C inhibitors and methods of using the same” (Amgen Inc., priority 2018, dated 2026)
pIC50: −log10 of the molar value. Read-outs that look alike come from different tables or passages of the source.

Legend:
[1] = biological target: GDP-bound KRAS protein (aa 1-169), containing both G12C and C118A amino acid substitutions (Homo sapiens, UniProt P01116, C118A/G12C); experiment: Coupled Nucleotide Exchange Assay; format: biochemical; settings: 5 min compound pre-incubation; SOS-mediated nucleotide exchange, AlphaScreen
Chain of GDP-bound KRAS protein (aa 1-169), containing both G12C and C118A amino acid substitutions (P01116 1-169 isoform P01116-2 G12C/C118A): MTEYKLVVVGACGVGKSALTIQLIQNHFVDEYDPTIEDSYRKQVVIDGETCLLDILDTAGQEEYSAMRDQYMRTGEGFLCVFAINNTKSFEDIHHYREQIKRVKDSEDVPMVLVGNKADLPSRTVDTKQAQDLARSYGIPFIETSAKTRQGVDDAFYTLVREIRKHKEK
Experimental: Following compound pre-incubation, purified SOS protein (aa 564-1049) and GTP (Roche 10106399001) were added to the assay wells and incubated for an additional 30 min. To determine the extent of inhibition of SOS-mediated nucleotide exchange, purified GST-tagged cRAF (aa 1-149), nickel chelate AlphaLISA acceptor beads (PerkinElmer AL108R), and AlphaScreen glutathione donor beads (PerkinElmer 6765302) were added to the assay wells and incubated for 10 minutes. The assay plates were then read on a PerkinElmer EnVision Multilabel Reader, using AlphaScreen® technology, and data were analyzed using a 4-parameter logistic model to calculate IC50 values.

[2] = test system: Phosphorylation of ERK1/2 in MIA PaCa-2 cells; experiment: Phospho-ERK1/2 MSD Assay; format: cell-based; settings: EGF stimulation 10 ng/mL, 10 min, read-out: p-ERK IC50 (2 h)
Experimental: Phospho-ERK1/2 MSD Assay: MIA PaCa-2 (ATCC® CRL-1420™) and A549 (ATCC® CCL-185™) cells were cultured in RPMI 1640 Medium (ThermoFisher Scientific 11875093) containing 10% fetal bovine serum (ThermoFisher Scientific 16000044) and 1× penicillin-streptomycin-glutamine (ThermoFisher Scientific 10378016). Sixteen hours prior to compound treatment, MIA PaCa-2 were seeded in 96-well cell culture plates at a density of 25,000 cells/well and incubated at 37° C., 5% CO2. A compound dose-response titration was diluted in growth media, added to appropriate wells of a cell culture plate, and then incubated at 37° C., 5% CO2 for 2 (see Table 10). Following compound treatment, cells were stimulated with 10 ng/mL EGF (Roche 11376454001) for 10 min, washed with ice-cold Dulbecco's phosphate-buffered saline, no Ca^2+ or Mg^2+ (ThermoFisher Scientific 14190144), and then lysed in RIPA buffer (50 mM Tris-HCl pH 7.5, 1% Igepal, 0.5% sodium deoxycholate, 150 mM NaCl, and 0.5% sodium dodecyl sulfate) containing protease inhibitors (Roche 4693132001) and phosphatase inhibitors (Roche 4906837001). Phosphorylation of ERK1/2 in compound-treated lysates was assayed using Phospho-ERK1/2 Whole Cell Lysate kits (Meso Scale Discovery K151DWD) according to the manufacturer's protocol. Assay plates were read on a Meso Scale Discovery Sector Imager 6000, and data were analyzed using a 4-parameter logistic model to calculate IC50 values.

[3] = Homo sapiens, MIA PaCa-2, 2 h compound treatment

Coupled exchange IC50 (5 min; μM) [1]	pIC50 ([2]; 2 h compound treatment)	pIC50 [2, 3]	Structure (SMILES)
0.28 µM		6.85	C=CC(=O)N1CCN(c2c(C#N)c(=O)n(-c3c(C)ccnc3C(C)C)c3nc(-c4ccccc4F)c(Cl)cc23)C[C@H]1C [Example 6.2, (R)-4-(4-acryloyl-3-methylpiperazin-1-yl)-6-chloro-7-(2-fluorophenyl)-1-(2-isopropyl-4-methylpyridin-3-yl)-2-oxo-1,2-dihydro-1,8-naphthyridine-3-carbonitrile]
0.10 µM	7.22		C=CC(=O)N1CCN(c2c(C#N)c(=O)n(-c3c(C)ccnc3C(C)C)c3nc(-c4ccccc4F)c(Cl)cc23)CC1 [Example 6.5, 4-(4-acryloylpiperazin-1-yl)-6-chloro-7-(2-fluorophenyl)-1-(2-isopropyl-4-methylpyridin-3-yl)-2-oxo-1,2-dihydro-1,8-naphthyridine-3-carbonitrile]
0.18 µM		6.59	C=CC(=O)N1[C@H](C)CN(c2c(C#N)c(=O)n(-c3c(C)ccnc3C(C)C)c3nc(-c4ccccc4F)c(Cl)cc23)C[C@@H]1C [Example 7.3, 4-((3R,5S)-4-acryloyl-3,5-dimethylpiperazin-1-yl)-6-chloro-7-(2-fluorophenyl)-1-(2-isopropyl-4-methylpyridin-3-yl)-2-oxo-1,2-dihydro-1,8-naphthyridine-3-carbonitrile]

The next lines start with the compound.

Structure (SMILES)	Coupled exchange IC50 (5 min; μM) [1]	pIC50 ([2]; 2 h compound treatment)	pIC50 [2, 3]
C=CC(=O)N1CCN(c2c(C#N)c(=O)n(-c3c(C)ccnc3C(C)C)c3nc(-c4ccccc4F)c(Cl)cc23)CC1 [Example 6, 4-(4-Acryloylpiperazin-1-yl)-6-chloro-7-(2-fluorophenyl)-1-(2-isopropyl-4-methylpyridin-3-yl)-2-oxo-1,2-dihydro-1,8-naphthyridine-3-carbonitrile]	0.17 µM	6.77	
C=CC(=O)N1CCN(c2c(C#N)c(=O)n(-c3c(C(C)C)ncnc3C(C)C)c3nc(-c4ccccc4F)c(Cl)cc23)CC1 [Example 6.3, 4-(4-acryloylpiperazin-1-yl)-6-chloro-1-(4,6-diisopropylpyrimidin-5-yl)-7-(2-fluorophenyl)-2-oxo-1,2-dihydro-1,8-naphthyridine-3-carbonitrile]	0.07 µM		7.40
C=CC(=O)N1CCN(c2c(C#N)c(=O)n(-c3c(C(C)C)ncnc3C(C)C)c3nc(-c4c(N)cccc4F)c(Cl)cc23)CC1 [Example 11.4, 4-(4-acryloylpiperazin-1-yl)-7-(2-amino-6-fluorophenyl)-6-chloro-1-(4,6-diisopropylpyrimidin-5-yl)-2-oxo-1,2-dihydro-1,8-naphthyridine-3-carbonitrile]	0.13 µM		7.05
